The values below come from US8703776B2 (Cymabay Therapeutics, Inc., priority 2011, dated 2014).

For this experiment, the target named is T1, human GPR131 (Homo sapiens, UniProt Q8TDU6).
T1 construct: expressed in transfected cells
T1 sequence (Q8TDU6 1-330): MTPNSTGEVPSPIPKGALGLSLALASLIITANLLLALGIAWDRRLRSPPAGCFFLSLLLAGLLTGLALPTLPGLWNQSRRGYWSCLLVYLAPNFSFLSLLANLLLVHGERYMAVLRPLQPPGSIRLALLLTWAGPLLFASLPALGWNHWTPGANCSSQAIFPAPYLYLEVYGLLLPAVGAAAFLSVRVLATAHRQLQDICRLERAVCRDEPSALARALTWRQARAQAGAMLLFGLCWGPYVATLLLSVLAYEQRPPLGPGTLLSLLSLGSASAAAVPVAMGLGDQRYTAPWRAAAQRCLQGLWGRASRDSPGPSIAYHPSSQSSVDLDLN
In words: Stimulation of cAMP in stable cell line expressing human GPR131 (FRET cAMP kit). It is filed as cell-based. As to conditions: 0.5 h; 1.1 μM compound, relative to maximal stimulatory activity of lithocholic acid at 3.3 μM; 30 minutes at 37° C.; read-out: Percent Activity @ 1.1 μM (of 3.3 uM LCA) (%). On the procedure: This assay was developed using a stable cell line expressing human GPR131.
To measure cAMP activity in response to GPR131 agonists, GPR131 cells suspended in DMEM/F12 medium with 1 mM IBMX were seeded in 384 well plates at 5000 cells per well. After incubating with test compounds at 37° C. for 30 minutes cAMP was measured using a fluorescene resonance energy transfer cAMP kit from Cis Bio (Bedford, Mass.) according to the manufacturer's instructions. Briefly, cells were lysed, and cAMP levels determined by competitive immunoassay using D2 labeled cAMP, and europium cryptate tagged anti cAMP antibody. Decreases in the FRET signal (fluorescence ratio (665 nm/620 […]) correspond to increases in intracellular cAMP levels.
Activities of test compounds in Table 1 below are expressed as % activity at 1.1 μM compound compared to the maximal stimulatory activity of lithocholic acid (LCA) (determined at 3.3 μM LCA)
`Cc1ccccc1CSc1ncc(C(=O)N(C)Cc2ccncc2)n1-c1ccc(F)cc1` [Compound 562, 1-(4-Fluorophenyl)-N-methyl-2-((2-methylbenzyl)thio)-N-(pyridin-4-ylmethyl)-1H-imidazole-5-carboxamide]: the activation at 1.1 µM came out at 82%.
In the case of `Cc1ccc(-n2c(C(=O)N(C)Cc3ccncc3)cnc2SCc2c(F)cccc2Cl)cc1` [Compound 563, 2-((2-Chloro-6-fluorobenzyl)thio)-N-methyl-N-(pyridin-4-ylmethyl)-1-(p-tolyl)-1H-imidazole-5-carboxamide], the activation at 1.1 µM worked out at 98%.
The same measure for `CN(Cc1ccncc1)C(=O)c1cnc(SCc2c(F)cccc2Cl)n1-c1cccc(F)c1` [Compound 564, 2-((2-Chloro-6-fluorobenzyl)thio)-1-(3-fluorophenyl)-N-methyl-N-(pyridin-4-ylmethyl)-1H-imidazole-5-carboxamide]: 99%.
Under `CN(Cc1ccncc1)C(=O)c1cnc(SCc2c(F)cccc2Cl)n1C1CCCCC1` [Compound 565, 2-((2-Chloro-6-fluorobenzyl)thio)-1-cyclohexyl-N-methyl-N-(pyridin-4-ylmethyl)-1H-imidazole-5-carboxamide] stands 99%; under `Cc1nn(C)cc1CN(C)C(=O)c1cnc(CSc2c(Cl)cccc2Cl)n1-c1ccc(F)cc1` [Compound 567, 2-(((2,6-Dichlorophenyl)thio)methyl)-N-((1,3-dimethyl-1H-pyrazol-4-yl)methyl)-1-(4-fluorophenyl)-N-methyl-1H-imidazole-5-carboxamide], 96%.
Under `Cc1nn(C)cc1CN(C)C(=O)c1cnc(COc2c(F)ccc(F)c2F)n1-c1ccc(F)cc1` [Compound 568, N-((1,3-Dimethyl-1H-pyrazol-4-yl)methyl)-1-(4-fluorophenyl)-N-methyl-2-((2,3,6-trifluorophenoxy)methyl)-1H-imidazole-5-carboxamide] stands 83%; under `Cc1nn(C)cc1CN(C)C(=O)c1cnc(CSc2c(F)c(F)cc(F)c2F)n1-c1ccc(F)cc1` [Compound 569, N-((1,3-Dimethyl-1H-pyrazol-4-yl)methyl)-1-(4-fluorophenyl)-N-methyl-2-(((2,3,5,6-tetrafluorophenyl)thio)methyl)-1H-imidazole-5-carboxamide], 98%; under `Cc1nn(C)cc1CN(C)C(=O)c1cnc(CSCc2c(F)ccc(F)c2F)n1-c1ccc(F)cc1` [Compound 572, N-((1,3-Dimethyl-1H-pyrazol-4-yl)methyl)-1-(4-fluorophenyl)-N-methyl-2-(((2,3,6-trifluorobenzyl)thio)methyl)-1H-imidazole-5-carboxamide], 88%.
`CN(Cc1ccnc(Cl)c1)C(=O)c1cnc(SCc2c(F)ccc(F)c2F)n1-c1ccc(F)cc1` [Compound 578, N-((2-Chloropyridin-4-yl)methyl)-1-(4-fluorophenyl)-N-methyl-2-((2,3,6-trifluorobenzyl)thio)-1H-imidazole-5-carboxamide]: the activation at 1.1 µM is 99%.
The same measure for `Cc1nn(C)cc1CN(C)C(=O)c1cnc(SCc2ccncc2)n1-c1ccc(F)cc1` [Compound 579, N-((1,3-Dimethyl-1H-pyrazol-4-yl)methyl)-1-(4-fluorophenyl)-N-methyl-2-((pyridine-4-ylmethyl)thio)-1H-imidazole-5-carboxamide]: 85%.
Under `Cc1cc(CN(C)C(=O)c2cnc(SCCc3ccc(F)c(Cl)c3)n2-c2ccc(F)cc2)ccn1` [Compound 583] stands 96%; under `Cc1cc(CN(C)C(=O)c2c(C)nc(SCc3c(F)ccc(F)c3F)n2-c2ccc(F)cc2)ccn1` [Compound 585, 1-(4-Fluorophenyl)-N-4-dimethyl-N-((2-methylpyridin-4-yl)methyl)-2-((2,3,6-trifluorobenzyl)thio)-1H-imidazole-5-carboxamide], 97%; under `Cc1cc(CN(C)C(=O)c2cnc(S(=O)(=O)CCc3ccc(F)c(Cl)c3)n2-c2ccc(F)cc2)ccn1` [Compound 586, 2-((3-Chloro-4-fluorophenethyl)sulfonyl)-1-(4-fluorophenyl)-N-methyl-N-((2-methylpyridin-4-yl)methyl)-1H-imidazole-5-carboxamide], 86%.
Under `CN(Cc1ccnc(C(F)(F)F)c1)C(=O)c1cnc(SCc2c(F)ccc(F)c2F)n1-c1ccc(F)cc1` [Compound 587] stands 86%; under `Cc1cc(CN(C)C(=O)c2cnc(I)n2-c2ccc(F)cc2)ccn1` [Compound 589, 1-(4-Fluorophenyl)-2-iodo-N-methyl-N-((2-methylpyridin-4-yl)methyl)-1H-imidazole-5-carboxamide], 87%; under `Cc1nn(C)cc1CN(C)C(=O)c1cnc(Br)n1-c1ccc(F)cc1` [Compound 590, 2-Bromo-N-((1,3-dimethyl-1H-pyrazol-4-yl)methyl)-1-(4-fluorophenyl)-N-methyl-1H-imidazole-5-carboxamine], 86%.
For `COc1ccc(Cl)c(CSc2ncc(C(=O)N3CCCC3c3ccncc3)n2-c2ccc(F)cc2)c1F` (stereo not shown) [Compound 591, (2-((6-Chloro-2-fluoro-3-methoxybenzyl)thio)-1-(4-fluorophenyl)-1H-imidazol-5-yl)(2-(pyridin-4-yl)pyrrolidin-1-yl)methanone], the activation at 1.1 µM stood at 94%.
In the case of `Cc1nn(C)cc1CN(C)C(=O)c1cnc(SCc2ccccc2)n1-c1ccc(F)cc1` [Compound 593, 2-(Benzylthio)-N-((1,3-dimethyl-1H-pyrazol-4-yl)methyl)-1-(4-fluorophenyl)-N-methyl-1H-imidazole-5-carboxamide], the activation at 1.1 µM was 99%.
Under `COc1ccc(Cl)c(CSc2nnc(C(=O)N(C)Cc3ccncc3)n2-c2ccc(F)cc2)c1F` [Compound 594, 5-((6-Chloro-2-fluoro-3-methoxybenzyl)thio)-4-(4-fluorophenyl)-N-methyl-N-(pyridin-4-ylmethyl)-4H-1,2,4-triazole-3-carboxamide] stands 98%; under `Cc1ccc(Cl)c(CSc2nnc(C(=O)N(C)Cc3ccncc3)n2-c2ccc(F)cc2)c1F` [Compound 595, 5-((6-Chloro-2-fluoro-3-methylbenzyl)thio)-4-(4-fluorophenyl)-N-methyl-N-(pyridin-4-ylmethyl)-4H-1,2,4-triazole-3-carboxamide], 98%.
Under `COc1ccc(Cl)c(CSc2ncc(C(=O)N(C)Cc3cn(C)nc3C)n2-c2ccc(F)cc2)c1F` [Compound 596, 2-((6-Chloro-2-fluoro-3-methoxybenzyl)thio)-N-((1,3-dimethyl-1H-pyrazol-4-yl)methyl)-1-(4-fluorophenyl)-N-methyl-1H-imidazole-5-carboxamide] stands 100%; under `Cc1ccc(Cl)c(CSc2ncc(C(=O)N(C)Cc3cn(C)nc3C)n2-c2ccc(F)cc2)c1F` [Compound 597, 2-((6-Chloro-2-fluoro-3-methylbenzyl)thio)-N-((1,3-dimethyl-1H-pyrazol-4-yl)methyl)-1-(4-fluorophenyl)-N-methyl-1H-imidazole-5-carboxamide], 100%.
With `CN(Cc1cccnc1)C(=O)c1cnc(SCc2c(F)ccc(F)c2F)n1-c1ccc(F)cc1` [Compound 603, 1-(4-Fluorophenyl)-N-methyl-N-(pyridin-3-ylmethyl)-2-((2,3,6-trifluorobenzyl)thio)-1H-imidazole-5-carboxamide], the activation at 1.1 µM is 82%.
The same measure for `Fc1ccc(-n2c(COCc3ccncc3)nnc2SCc2c(F)ccc(F)c2F)cc1` [Compound 606]: 98%.
The same measure for `CN(Cc1ccncc1)C(=O)c1cnc(SCc2c(F)cccc2C(F)(F)F)n1-c1ccc(F)cc1` [Compound 607, 2-((2-Fluoro-6-(trifluoromethyl)benzyl)thio)-1-(4-fluorophenyl)-N-methyl-N-(pyridin-4-ylmethyl)-1H-imidazole-5-carboxamide]: 93%.
The same measure for `CN(Cc1ccncc1)C(=O)c1cnc(SCc2ccc(Cl)cc2C(F)(F)F)n1-c1ccc(F)cc1` [Compound 609, 2-((4-Chloro-2-(trifluoromethyl)benzyl)thio)-1-(4-fluorophenyl)-N-methyl-N-(pyridin-4-ylmethyl)-1H-imidazole-5-carboxamide]: 86%; for `CN(Cc1ccncc1)C(=O)c1cnc(SCc2cccc(C(F)(F)F)c2F)n1-c1ccc(F)cc1` [Compound 610, 2-((2-Fluoro-3-(trifluoromethyl)benzyl)thio)-1-(4-fluorophenyl)-N-methyl-N-(pyridin-4-ylmethyl)-1H-imidazole-5-carboxamide]: 100%.
Regarding `CN(Cc1ccncc1)C(=O)c1cnc(SCc2cc(F)ccc2F)n1-c1ccc(F)cc1` [Compound 611, 2-((2,5-Difluorobenzyl)thio)-1-(4-fluorophenyl)-N-methyl-N-(pyridin-4-ylmethyl)-1H-imidazole-5-carboxamide], the activation at 1.1 µM came to 99%.
